The values below come from ChEMBL document CHEMBL4602694, “Suppression of Drug-Resistant Non-Small-Cell Lung Cancer with Inhibitors Targeting Minichromosomal Maintenance Protein” (J Med Chem, 2020).

The nature of series [1]: Toxicity in athymic nude BALB/c mouse xenografted with human NCI-H1975 cells assessed as effect on serum creatinine at 1 or 4 mg/kg, ip administered for 4 weeks. It is filed as organism-based. Particulars: in vivo, 672 h. (In general: Xenograft models place foreign cells or tissue in a host animal.)
The target of series [2] is T1, DNA replication licensing factor MCM6 (Homo sapiens) (UniProt Q14566).
T1 sequence (whole entry): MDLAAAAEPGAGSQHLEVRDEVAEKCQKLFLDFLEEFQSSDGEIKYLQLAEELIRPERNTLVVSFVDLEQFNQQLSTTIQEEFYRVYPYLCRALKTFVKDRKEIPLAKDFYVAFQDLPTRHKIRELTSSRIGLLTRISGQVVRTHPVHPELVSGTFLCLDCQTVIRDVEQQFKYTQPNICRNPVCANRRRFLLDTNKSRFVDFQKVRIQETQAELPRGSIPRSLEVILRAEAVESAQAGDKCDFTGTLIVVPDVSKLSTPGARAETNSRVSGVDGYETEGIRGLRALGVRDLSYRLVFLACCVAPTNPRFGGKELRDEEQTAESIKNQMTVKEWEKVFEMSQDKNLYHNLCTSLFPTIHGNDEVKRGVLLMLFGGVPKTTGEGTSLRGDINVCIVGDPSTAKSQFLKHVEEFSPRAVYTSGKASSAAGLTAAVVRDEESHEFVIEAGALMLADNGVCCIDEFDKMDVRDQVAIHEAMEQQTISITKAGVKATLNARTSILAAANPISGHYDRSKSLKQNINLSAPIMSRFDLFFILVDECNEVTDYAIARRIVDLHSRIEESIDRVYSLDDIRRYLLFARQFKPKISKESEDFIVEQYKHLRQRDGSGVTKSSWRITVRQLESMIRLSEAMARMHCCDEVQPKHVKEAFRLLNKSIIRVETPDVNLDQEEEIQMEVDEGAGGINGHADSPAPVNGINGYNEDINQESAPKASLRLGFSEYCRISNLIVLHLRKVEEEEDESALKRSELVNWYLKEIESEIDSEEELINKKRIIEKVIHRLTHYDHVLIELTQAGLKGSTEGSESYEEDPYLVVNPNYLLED
Nature of the series: Induction of ubiquitination of MCM6 in human PC9 cells incubated for 24 hrs by immunoblot analysis. Conditions: PC-9. It is filed as cell-based. Background: A western blot detects proteins with antibodies after separation by electrophoresis.

Series [3] has as its target DNA replication licensing factor MCM7 (Homo sapiens) (UniProt P33993). The series is described as follows: Induction of ubiquitination of MCM7 in human NCI-H1975 cells incubated for 24 hrs by immunoblot analysis. The series is classed as cell-based.
Series [4] concerns the target DNA replication licensing factor MCM2 (Homo sapiens) (UniProt P49736). The series is described as follows: Induction of ubiquitination of MCM2 in human NCI-H1975 cells in presence of MG132 incubated for 48 hrs followed by MG132 addition and measured after 12 hrs by immunoblot analysis (reference value: 1.4). The series is classed as cell-based.

Activity calls are given as the source filed them. No cut-off for these calls is given here.

Sequence of DNA replication licensing factor MCM2 (Homo sapiens) (P49736 whole entry): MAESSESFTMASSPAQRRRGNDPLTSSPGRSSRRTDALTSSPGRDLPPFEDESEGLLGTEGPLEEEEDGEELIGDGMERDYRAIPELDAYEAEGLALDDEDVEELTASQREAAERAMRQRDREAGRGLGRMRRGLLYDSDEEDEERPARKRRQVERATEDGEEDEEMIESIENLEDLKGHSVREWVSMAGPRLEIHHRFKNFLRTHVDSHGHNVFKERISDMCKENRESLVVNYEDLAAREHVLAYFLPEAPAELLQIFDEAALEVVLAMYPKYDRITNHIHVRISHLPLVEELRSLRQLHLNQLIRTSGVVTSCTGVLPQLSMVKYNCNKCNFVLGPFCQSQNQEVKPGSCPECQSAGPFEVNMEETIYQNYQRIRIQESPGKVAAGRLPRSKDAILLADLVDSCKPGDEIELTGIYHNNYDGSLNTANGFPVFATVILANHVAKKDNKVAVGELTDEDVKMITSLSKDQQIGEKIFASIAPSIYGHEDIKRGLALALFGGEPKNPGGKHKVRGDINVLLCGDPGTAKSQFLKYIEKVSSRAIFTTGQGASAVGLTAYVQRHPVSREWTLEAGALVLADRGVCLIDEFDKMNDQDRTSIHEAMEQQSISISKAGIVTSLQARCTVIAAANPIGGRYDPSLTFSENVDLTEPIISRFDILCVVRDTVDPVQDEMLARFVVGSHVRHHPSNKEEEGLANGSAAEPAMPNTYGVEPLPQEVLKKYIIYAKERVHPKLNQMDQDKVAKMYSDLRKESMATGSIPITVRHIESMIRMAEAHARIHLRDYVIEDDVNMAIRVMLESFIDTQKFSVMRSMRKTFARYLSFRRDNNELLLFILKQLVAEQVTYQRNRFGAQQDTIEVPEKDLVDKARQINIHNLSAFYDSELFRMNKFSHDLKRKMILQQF
Sequence of DNA replication licensing factor MCM7 (Homo sapiens) (P33993 whole entry): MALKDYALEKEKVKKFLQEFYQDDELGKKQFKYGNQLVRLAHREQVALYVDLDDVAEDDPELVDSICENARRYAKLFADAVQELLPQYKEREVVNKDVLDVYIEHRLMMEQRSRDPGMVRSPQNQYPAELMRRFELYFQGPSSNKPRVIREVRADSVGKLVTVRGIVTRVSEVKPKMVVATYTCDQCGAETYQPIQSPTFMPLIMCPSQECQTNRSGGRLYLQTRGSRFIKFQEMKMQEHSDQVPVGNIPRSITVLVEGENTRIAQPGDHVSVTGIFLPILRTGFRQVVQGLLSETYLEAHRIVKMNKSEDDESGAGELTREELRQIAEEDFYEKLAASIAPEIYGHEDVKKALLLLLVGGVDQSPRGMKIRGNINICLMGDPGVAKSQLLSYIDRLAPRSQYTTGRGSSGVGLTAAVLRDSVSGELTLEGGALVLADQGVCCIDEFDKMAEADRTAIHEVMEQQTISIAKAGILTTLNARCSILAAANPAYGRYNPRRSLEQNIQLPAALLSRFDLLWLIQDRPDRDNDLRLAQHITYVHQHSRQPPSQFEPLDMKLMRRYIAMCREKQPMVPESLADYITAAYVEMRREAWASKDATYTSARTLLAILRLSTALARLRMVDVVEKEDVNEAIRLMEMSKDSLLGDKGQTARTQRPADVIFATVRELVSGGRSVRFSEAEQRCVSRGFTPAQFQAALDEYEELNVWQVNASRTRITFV

For the compound `Cc1oc2c(c1C(=O)NCCCn1ccnc1)C(=O)c1ccccc1C2=O`, the Activity entry in series [1] was “Non-Toxic”; in series [3] it was “Dose-dependent effect”; in series [4] it was 1.6. In addition, the result in series [2] was Active.
